Experimental data as given in US8530493B2, “Indolopyridines as Eg5 kinesin modulators” (4SC AG, priority 2006, dated 2013).

What was measured:
[1] = tested on: RKO p27 or p21 uninduced (proliferating) colon adenocarcinoma cells; experiment: Alamar Blue cell viability assay, RKO p27 or p21 uninduced (proliferating); type: cell-based; details: Homo sapiens, RKOp27, 72 h, Table B2, anti-proliferative/cytotoxic activity, read-out: −log EC50 RKO p27 or p21 uninduced (proliferating) (converted)
Experimental: The anti-proliferative/cytotoxic activity of the compounds described herein can be tested on subclones of RKO human colon adenocarcinoma cells (Schmidt et al., Oncogene 19, 2423-2429; 2000) using the Alamar Blue cell viability assay (described in O'Brien et al. Eur J Biochem 267, 5421-5426, 2000). The compounds are dissolved as 10 mM solutions in DMSO and subsequently diluted in semi-logarithmic steps. DMSO dilutions are further diluted 1:100 into Dulbecco's modified Eagle's medium (DMEM) containing 10% fetal calf serum to a final concentration twice as much as the final concentration in the test. RKO subclones are seeded into 96 well flat bottom plates at a density of 4000 cells per well in a volume of 50 μl per well. 24 hours after seeding the 50 μl each of the compound dilutions in DMEM medium are added into each well of the 96 well plate. Each compound dilution is tested as triplicates. Wells containing untreated control cells are filled with 50 μl DMEM medium containing 1% DMSO. The cells are then incubated with the substances for 72 hours at 37° C. in a humidified atmosphere containing 5% carbon dioxide. To determine the viability of the cells, 10 μl of an Alamar Blue solution (Biosource) are added and the fluorescence is measured at an extinction of 544 nm and an emission of 590 nm. For the calculation of the cell viability the emission value from untreated cells is set as 100% viability and the emission rates of treated cells are set in relation to the values of untreated cells. Viabilities are expressed as % values. The Graphpad Prism program is used for the calculation of EC50 values for anti-proliferative/cytotoxic activity out of the obtained dose-response curves.
(§1) To determine the cell cycle specific mode of action, subclones of RKO colon adenocarcinoma cells (RKOp21 or RKOp27 as described by Schmidt et al. in Oncogene 19, 2423-2429; 2000) are seeded into 96 well flat bottom plates at a density of 16000 cells per well in a volume of 50 μl per well in DMEM growth medium with 10% FCS containing 10 μM Ponasterone A. 24 hours after seeding the 50 μl each of the compound dilutions in DMEM medium are added into each well of the 96-well plate. Each compound dilution is tested as triplicates. Wells containing untreated control cells are filled with 50 μl DMEM medium containing 1% DMSO. The cells are then incubated with the substances for 72 hours at 37° C. in a humidified atmosphere containing 5% carbon dioxide. To determine the viability of the cells, 10 μl of an Alamar Blue solution (Biosource) are added and the fluorescence is measured at an extinction of 544 nm and an emission of 590 nm. For the calculation of the cell viability the emission value from untreated cells is set as 100% viability and the emission rates of treated cells are set in relation to the values of untreated cells. Viabilities are expressed as % values. The Graphpad Prism program (GraphPad Software, Inc) is used for the calculation of EC50 values out of the obtained dose-response curves. Viability is compared of proliferating cells grown in the absence of the inducer Ponasterone A, versus viability of cells arrested by the expression of ectopic p27Kip1 induced by Ponasterone A.
(§2) Representative values for anti-proliferation/cytotoxicity [measured as −log EC50 (mol/l)] determined in the aforementioned assays follow from the following tables B1, B2 and B3, in which the numbers of the compounds correspond to the numbers of the examples.

[2] = tested on: RKO p27 or p21 induced (arrested) colon adenocarcinoma cells; experiment: Alamar Blue cell viability assay, RKO p27 or p21 induced (arrested); type: cell-based; details: Homo sapiens, RKOp27, Table B2, cells arrested by Ponasterone A, 72 hours, read-out: −log EC50 RKO p27 or p21 induced (arrested) (converted)
Experimental: as §1, §2

| SMILES | EC50 [2] | EC50 [1] |
| --- | --- | --- |
| C=CCNCCN1C(=O)N2[C@H](c3cccc(O)c3)c3[nH]c4ccc(OC)cc4c3C[C@@]2(C)C1=O (racemic) [Example 84, (3aSR,10RS)-2-(2-Allylamino-ethyl)-10-(3-hydroxy-phenyl)-6-methoxy-3a-methyl-3a,4,9,10-tetrahydro-2,9,10a-triaza-cyclopenta[b]fluorene-1,3-dione] | ≥ 3160 nM | ≤ 39.8 nM |
| COc1ccc2[nH]c3c(c2c1)C[C@@]1(C)C(=O)N(CCCN2CCC2)C(=O)N1[C@@H]3c1cccc(O)c1 (racemic) [Example 87, (3aSR,10RS)-2-(3-Azetidin-1-yl-propyl)-10-(3-hydroxy-phenyl)-6-methoxy-3a-methyl-3a,4,9,10-tetrahydro-2,9,10a-triaza-cyclopenta[b]fluorene-1,3-dione] | ≥ 3160 nM | ≤ 39.8 nM |
| CCN(CCO)CCCN1C(=O)N2[C@H](c3cccc(O)c3)c3[nH]c4ccc(OC)cc4c3C[C@@]2(C)C1=O (racemic) [Example 89, (3aSR,10RS)-2-{3-[Ethyl-(2-hydroxy-ethyl)-amino]-propyl}-10-(3-hydroxy-phenyl)-6-methoxy-3a-methyl-3a,4,9,10-tetrahydro-2,9,10a-triaza-cyclopenta[b]fluorene-1,3-dione] | ≥ 3160 nM | ≤ 39.8 nM |
| CCN(CCCN1C(=O)N2[C@H](c3cccc(O)c3)c3[nH]c4ccc(OC)cc4c3C[C@@]2(C)C1=O)CCOC (racemic) [Example 90, (3aSR,10RS)-2-{3-[Ethyl-(2-methoxy-ethyl)-amino]-propyl}-10-(3-hydroxy-phenyl)-6-methoxy-3a-methyl-3a,4,9,10-tetrahydro-2,9,10a-triaza-cyclopenta[b]fluorene-1,3-dione] | ≥ 3160 nM | ≤ 39.8 nM |
| COc1ccc2[nH]c3c(c2c1)C[C@@]1(C)C(=O)N(CCCNC2CC2)C(=O)N1[C@@H]3c1cccc(O)c1 (racemic) [Example 93, (3aSR,10RS)-2-(3-Cyclopropylamino-propyl)-10-(3-hydroxy-phenyl)-6-methoxy-3a-methyl-3a,4,9,10-tetrahydro-2,9,10a-triaza-cyclopenta[b]fluorene-1,3-dione] | ≥ 3160 nM | ≤ 39.8 nM |
| COc1ccc2[nH]c3c(c2c1)C[C@@]1(C)C(=O)N(CCCNCC2CC2)C(=O)N1[C@@H]3c1cccc(O)c1 (racemic) [Example 95, (3aSR,10RS)-2-[3-(Cyclopropylmethyl-amino)-propyl]-10-(3-hydroxy-phenyl)-6-methoxy-3a-methyl-3a,4,9,10-tetrahydro-2,9,10a-triaza-cyclopenta[b]fluorene-1,3-dione] | ≥ 3160 nM | ≤ 39.8 nM |
| COc1ccc2[nH]c3c(c2c1)C[C@@]1(C)C(=O)N(CCCN2CCCC2)C(=O)N1[C@@H]3c1cccc(O)c1 (racemic) [Example 96, (3aSR,10RS)-10-(3-Hydroxy-phenyl)-6-methoxy-3a-methyl-2-(3-pyrrolidin-1-yl-propyl)-3a,4,9,10-tetrahydro-2,9,10a-triaza-cyclopenta[b]fluorene-1,3-dione] | ≥ 3160 nM | ≤ 39.8 nM |
| CC1CCN(CCN2C(=O)N3[C@H](c4cccc(O)c4)c4[nH]c5ccc(Cl)cc5c4C[C@@]3(C)C2=O)CC1 (racemic) [Example 98, (3aSR,10RS)-6-Chloro-10-(3-hydroxy-phenyl)-3a-methyl-2-[2-(4-methyl-piperidin-1-yl)-ethyl]-3a,4,9,10-tetrahydro-2,9,10a-triaza-cyclopenta[b]fluorene-1,3-dione] | ≥ 3160 nM | ≤ 39.8 nM |

Now from value to molecule, other results behind:

| EC50 [2] | SMILES | EC50 [1] |
| --- | --- | --- |
| ≥ 3160 nM | C#CCN(C)CCN1C(=O)N2[C@H](c3cccc(O)c3)c3[nH]c4ccc(OC)cc4c3C[C@@]2(C)C1=O (racemic) [Example 81, (3aSR,10RS)-10-(3-Hydroxy-phenyl)-6-methoxy-3a-methyl-2-[2-(methyl-prop-2-ynyl-amino)-ethyl]-3a,4,9,10-tetrahydro-2,9,10a-triaza-cyclopenta[b]fluorene-1,3-dione] | ≤ 39.8 nM |
| ≥ 3160 nM | COc1ccc2[nH]c3c(c2c1)C[C@@]1(C)C(=O)N(CCNCCO)C(=O)N1[C@@H]3c1cccc(O)c1 (racemic) [Example 82, (3aSR,10RS)-2-[2-(2-Hydroxy-ethylamino)-ethyl]-10-(3-hydroxy-phenyl)-6-methoxy-3a-methyl-3a,4,9,10-tetrahydro-2,9,10a-triaza-cyclopenta[b]fluorene-1,3-dione] | ≤ 39.8 nM |
| ≥ 3160 nM | COCCNCCN1C(=O)N2[C@H](c3cccc(O)c3)c3[nH]c4ccc(OC)cc4c3C[C@@]2(C)C1=O (racemic) [Example 83, (3aSR,10RS)-10-(3-Hydroxy-phenyl)-6-methoxy-2-[2-(2-methoxy-ethylamino)-ethyl]-3a-methyl-3a,4,9,10-tetrahydro-2,9,10a-triaza-cyclopenta[b]fluorene-1,3-dione] | ≤ 39.8 nM |
| ≥ 3160 nM | C#CCNCCN1C(=O)N2[C@H](c3cccc(O)c3)c3[nH]c4ccc(OC)cc4c3C[C@@]2(C)C1=O (racemic) [Example 85, (3aSR,10RS)-10-(3-Hydroxy-phenyl)-6-methoxy-3a-methyl-2-(2-prop-2-ynylamino-ethyl)-3a,4,9,10-tetrahydro-2,9,10a-triaza-cyclopenta[b]fluorene-1,3-dione] | 39.8 to 251 nM |
| ≥ 3160 nM | COc1ccc2[nH]c3c(c2c1)C[C@@]1(C)C(=O)N(CCCNC2CCC2)C(=O)N1[C@@H]3c1cccc(O)c1 (racemic) [Example 86, (3aSR,10RS)-2-(3-Cyclobutylamino-propyl)-10-(3-hydroxy-phenyl)-6-methoxy-3a-methyl-3a,4,9,10-tetrahydro-2,9,10a-triaza-cyclopenta[b]fluorene-1,3-dione] | ≤ 39.8 nM |
| ≥ 3160 nM | C=CCN(C)CCCN1C(=O)N2[C@H](c3cccc(O)c3)c3[nH]c4ccc(OC)cc4c3C[C@@]2(C)C1=O (racemic) [Example 88, (3aSR,10RS)-2-[3-(Allyl-methyl-amino)-propyl]-10-(3-hydroxy-phenyl)-6-methoxy-3a-methyl-3a,4,9,10-tetrahydro-2,9,10a-triaza-cyclopenta[b]fluorene-1,3-dione] | ≤ 39.8 nM |
| ≥ 3160 nM | COc1ccc2[nH]c3c(c2c1)C[C@@]1(C)C(=O)N(CCCNCC(C)C)C(=O)N1[C@@H]3c1cccc(O)c1 (racemic) [Example 92, (3aSR,10RS)-10-(3-Hydroxy-phenyl)-2-(3-isobutylamino-propyl)-6-methoxy-3a-methyl-3a,4,9,10-tetrahydro-2,9,10a-triaza-cyclopenta[b]fluorene-1,3-dione] | ≤ 39.8 nM |
| ≥ 3160 nM | COc1ccc2[nH]c3c(c2c1)C[C@@]1(C)C(=O)N(CCCN(C)C(C)C)C(=O)N1[C@@H]3c1cccc(O)c1 (racemic) [Example 94, (3aSR,10RS)-10-(3-Hydroxy-phenyl)-2-[3-(isopropyl-methyl-amino)-propyl]-6-methoxy-3a-methyl-3a,4,9,10-tetrahydro-2,9,10a-triaza-cyclopenta[b]fluorene-1,3-dione] | ≤ 39.8 nM |
| ≥ 3160 nM | CC(C)(C)NCCN1C(=O)N2[C@H](c3cccc(O)c3)c3[nH]c4ccc(Cl)cc4c3C[C@@]2(C)C1=O (racemic) [Example 97, (3aSR,10RS)-2-(2-tert-Butylamino-ethyl)-6-chloro-10-(3-hydroxy-phenyl)-3a-methyl-3a,4,9,10-tetrahydro-2,9,10a-triaza-cyclopenta[b]fluorene-1,3-dione] | ≤ 39.8 nM |
